Data taken from patent publication US10351546B2, “Pyridin-3-yl acetic acid derivatives as inhibitors of human immunodeficiency virus replication” (priority 2015, dated 2019).
Read-outs that look alike come from different tables or passages of the source.

System: NL-RLuc virus
Experiment: Inhibition of HIV replication (NL-RLuc luciferase reporter virus in MT-2 cells)
Format: cell-based
Details: Human immunodeficiency virus 1, MT2, 120 h
Method in brief: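 MT-2 cells were infected with NL4-3-derived virus carrying Renilla luciferase in place of part of nef, in RPMI/10% FBS, with serial compound dilutions. Luciferase read after 5 days of multicycle replication. EC50 from the median effect equation, at least 2 experiments.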

Row | Compound | EC50 (read-out: Activity) | EC50 (read-out: EC50 μM)
1 | Cc1nc(CC2CCC(C)(C)CC2)c(-c2ccc(OCCc3ccc(F)cc3)cc2)c(N2CCC(C)(C)CC2)c1[C@H](OC(C)(C)C)C(=O)O [Example 173, (S)-2-(tert-Butoxy)-2-(6-((4,4-dimethylcyclohexyl)methyl)-4-(4,4-dimethylpiperidin-1-yl)-5-(4-(4-fluorophenethoxy)phenyl)-2-methylpyridin-3-yl)acetic acid] | < 0.1 µM | 0.035 µM
2 | Cc1nc(CNC23CC(C2)C3)c(-c2ccc(OCCc3ccc(F)cc3)cc2)c(N2CCC(C)(C)CC2)c1[C@H](OC(C)(C)C)C(=O)O [Example 174, (S)-2-(6-((Bicyclo[1.1.1]pentan-1-ylamino)methyl)-4-(4,4-dimethylpiperidin-1-yl)-5-(4-(4-fluorophenethoxy)phenyl)-2-methylpyridin-3-yl)-2-(tert-butoxy)acetic acid] | < 0.1 µM | –
3 | Cc1cccc(Cl)c1CN1CCc2cc(-c3c(CN4CCC4)nc(C)c([C@H](OC(C)(C)C)C(=O)O)c3N3CCC(C)(C)CC3)ccc2C1 [Example 175, (S)-2-(6-(Azetidin-1-ylmethyl)-5-(2-(2-chloro-6-methylbenzyl)-1,2,3,4-tetrahydroisoquinolin-6-yl)-4-(4,4-dimethylpiperidin-1-yl)-2-methylpyridin-3-yl)-2-(tert-butoxy)acetic acid] | < 0.1 µM | –
4 | Cc1cccc(Cl)c1CN1CCc2cc(-c3c(CN4CCCC4)nc(C)c([C@H](OC(C)(C)C)C(=O)O)c3N3CCC(C)(C)CC3)ccc2C1 [Example 176, (S)-2-(tert-Butoxy)-2-(5-(2-(2-chloro-6-methylbenzyl)-1,2,3,4-tetrahydroisoquinolin-6-yl)-4-(4,4-dimethylpiperidin-1-yl)-2-methyl-6-(pyrrolidin-1-ylmethyl)pyridin-3-yl)acetic acid] | < 0.1 µM | –
5 | Cc1cccc(Cl)c1CN1CCc2cc(-c3c(CN4CCCCC4)nc(C)c([C@H](OC(C)(C)C)C(=O)O)c3N3CCC(C)(C)CC3)ccc2C1 [Example 177, (S)-2-(tert-Butoxy)-2-(5-(2-(2-chloro-6-methylbenzyl)-1,2,3,4-tetrahydroisoquinolin-6-yl)-4-(4,4-dimethylpiperidin-1-yl)-2-methyl-6-(piperidin-1-ylmethyl)pyridin-3-yl)acetic acid] | < 0.1 µM | –
6 | Cc1cccc(Cl)c1CN1CCc2cc(-c3c(CN4CCC5(CC4)CC5)nc(C)c([C@H](OC(C)(C)C)C(=O)O)c3N3CCC(C)(C)CC3)ccc2C1 [Example 178, (S)-2-(6-((6-Azaspiro[2.5]octan-6-yl)methyl)-5-(2-(2-chloro-6-methylbenzyl)-1,2,3,4-tetrahydroisoquinolin-6-yl)-4-(4,4-dimethylpiperidin-1-yl)-2-methylpyridin-3-yl)-2-(tert-butoxy)acetic acid] | < 0.1 µM | –
7 | Cc1cccc(Cl)c1CN1CCc2cc(-c3c(CN4CCC(C)(C)CC4)nc(C)c([C@H](OC(C)(C)C)C(=O)O)c3N3CCC(C)(C)CC3)ccc2C1 [Example 179, (S)-2-(tert-Butoxy)-2-(5-(2-(2-chloro-6-methylbenzyl)-1,2,3,4-tetrahydroisoquinolin-6-yl)-4-(4,4-dimethylpiperidin-1-yl)-6-((4,4-dimethylpiperidin-1-yl)methyl)-2-methylpyridin-3-yl)acetic acid] | < 0.1 µM | 0.005 µM
8 | Cc1cccc(Cl)c1CN1CCc2cc(-c3c(CN4CCC5(CCC5)CC4)nc(C)c([C@H](OC(C)(C)C)C(=O)O)c3N3CCC(C)(C)CC3)ccc2C1 [Example 180, (S)-2-(6-((7-Azaspiro[3.5]nonan-7-yl)methyl)-5-(2-(2-chloro-6-methylbenzyl)-1,2,3,4-tetrahydroisoquinolin-6-yl)-4-(4,4-dimethylpiperidin-1-yl)-2-methylpyridin-3-yl)-2-(tert-butoxy)acetic acid] | < 0.1 µM | –
9 | CC1(C)CCN(c2c([C@H](OC(C)(C)C)C(=O)O)cnc(CO)c2-c2ccc(OCCc3ccc(F)cc3)cc2)CC1 [Example 181, (S)-2-(tert-butoxy)-2-(4-(4,4-dimethylpiperidin-1-yl)-5-(4-(4-fluorophenethoxy)phenyl)-6-(hydroxymethyl)pyridin-3-yl)acetic acid] | < 0.1 µM | –
10 | Cc1ncc([C@H](OC(C)(C)C)C(=O)O)c(N2CCC(C)(C)CC2)c1-c1ccc(OCCc2ccc(F)cc2)cc1 [Example 182, (S)-2-(tert-Butoxy)-2-(4-(4,4-dimethylpiperidin-1-yl)-5-(4-(4-fluorophenethoxy)phenyl)-6-methylpyridin-3-yl)acetic acid] | < 0.1 µM | –
11 | COCc1ncc([C@H](OC(C)(C)C)C(=O)O)c(N2CCC(C)(C)CC2)c1-c1ccc(OCCc2ccc(F)cc2)cc1 [Example 183, (S)-2-(tert-Butoxy)-2-(4-(4,4-dimethylpiperidin-1-yl)-5-(4-(4-fluorophenethoxy)phenyl)-6-(methoxymethyl)pyridin-3-yl)acetic acid] | < 0.1 µM | –
12 | CC1(C)CCN(c2c([C@H](OC(C)(C)C)C(=O)O)cnc(CCl)c2-c2ccc(OCCc3ccc(F)cc3)cc2)CC1 [Example 184, (S)-2-(tert-Butoxy)-2-(6-(chloromethyl)-4-(4,4-dimethylpiperidin-1-yl)-5-(4-(4-fluorophenethoxy)phenyl)pyridin-3-yl)acetic acid] | < 0.1 µM | 0.04 µM
